We go through nine compounds from ChEMBL document CHEMBL5291721, “A preclinical secondary pharmacology resource illuminates target-adverse drug reaction associations of marketed drugs” (Nat Commun, 2023).

Assay [1] has as its target 5-hydroxytryptamine receptor 2A (Homo sapiens, UniProt P28223). The format is functional, cell-based.
The target in assay [2] is Sodium-dependent noradrenaline transporter (Homo sapiens, UniProt P23975).
Another assay deals with T1, Adenosine receptor A3 (Homo sapiens, UniProt P0DMS8).
T1 sequence (P0DMS8 whole entry): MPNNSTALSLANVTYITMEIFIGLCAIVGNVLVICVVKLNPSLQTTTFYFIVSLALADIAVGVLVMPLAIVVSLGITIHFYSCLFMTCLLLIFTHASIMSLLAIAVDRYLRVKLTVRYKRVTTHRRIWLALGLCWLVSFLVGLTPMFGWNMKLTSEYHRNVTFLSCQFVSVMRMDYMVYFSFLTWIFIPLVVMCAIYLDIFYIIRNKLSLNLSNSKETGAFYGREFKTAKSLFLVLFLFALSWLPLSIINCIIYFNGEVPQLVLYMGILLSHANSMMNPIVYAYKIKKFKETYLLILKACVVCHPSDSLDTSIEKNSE

In a further assay the target is Histamine H3 receptor (Homo sapiens, UniProt Q9Y5N1).
Chain of Histamine H3 receptor (Q9Y5N1 whole entry): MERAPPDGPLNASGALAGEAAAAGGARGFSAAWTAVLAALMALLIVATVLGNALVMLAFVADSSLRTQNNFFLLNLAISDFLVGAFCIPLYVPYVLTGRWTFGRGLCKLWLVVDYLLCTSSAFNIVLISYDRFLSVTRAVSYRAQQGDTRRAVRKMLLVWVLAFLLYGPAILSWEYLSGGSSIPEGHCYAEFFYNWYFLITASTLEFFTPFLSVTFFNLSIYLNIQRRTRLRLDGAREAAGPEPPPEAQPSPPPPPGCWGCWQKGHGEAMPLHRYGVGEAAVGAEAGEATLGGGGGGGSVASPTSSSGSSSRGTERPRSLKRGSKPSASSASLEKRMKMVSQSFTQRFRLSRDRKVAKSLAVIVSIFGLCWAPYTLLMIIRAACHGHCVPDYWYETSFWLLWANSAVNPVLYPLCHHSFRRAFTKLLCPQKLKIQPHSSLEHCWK
For the next assay, the target named is Acetylcholinesterase (Homo sapiens, UniProt P22303). The assay is classed as functional.
Chain of Acetylcholinesterase (P22303 whole entry): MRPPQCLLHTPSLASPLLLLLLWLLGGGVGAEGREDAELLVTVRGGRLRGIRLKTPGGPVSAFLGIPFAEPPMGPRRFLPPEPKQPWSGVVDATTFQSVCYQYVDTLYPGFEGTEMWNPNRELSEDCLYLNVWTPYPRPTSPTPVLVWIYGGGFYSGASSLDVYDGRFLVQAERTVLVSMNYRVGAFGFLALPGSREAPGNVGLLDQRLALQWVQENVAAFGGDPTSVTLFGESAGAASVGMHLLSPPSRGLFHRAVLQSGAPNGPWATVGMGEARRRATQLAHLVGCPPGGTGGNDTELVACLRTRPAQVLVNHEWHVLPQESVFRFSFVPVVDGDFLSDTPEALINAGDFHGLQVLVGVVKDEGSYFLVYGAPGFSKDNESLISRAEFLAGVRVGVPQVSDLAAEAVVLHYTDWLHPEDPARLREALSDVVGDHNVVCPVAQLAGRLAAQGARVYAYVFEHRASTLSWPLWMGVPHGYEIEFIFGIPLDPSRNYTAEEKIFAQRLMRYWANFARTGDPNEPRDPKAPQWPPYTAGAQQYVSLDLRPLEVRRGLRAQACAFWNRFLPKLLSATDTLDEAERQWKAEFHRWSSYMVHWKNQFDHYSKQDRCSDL
The target of assay [3] is T2, Alpha-2B adrenergic receptor (Homo sapiens, UniProt P18089).
T2 sequence (P18089 whole entry): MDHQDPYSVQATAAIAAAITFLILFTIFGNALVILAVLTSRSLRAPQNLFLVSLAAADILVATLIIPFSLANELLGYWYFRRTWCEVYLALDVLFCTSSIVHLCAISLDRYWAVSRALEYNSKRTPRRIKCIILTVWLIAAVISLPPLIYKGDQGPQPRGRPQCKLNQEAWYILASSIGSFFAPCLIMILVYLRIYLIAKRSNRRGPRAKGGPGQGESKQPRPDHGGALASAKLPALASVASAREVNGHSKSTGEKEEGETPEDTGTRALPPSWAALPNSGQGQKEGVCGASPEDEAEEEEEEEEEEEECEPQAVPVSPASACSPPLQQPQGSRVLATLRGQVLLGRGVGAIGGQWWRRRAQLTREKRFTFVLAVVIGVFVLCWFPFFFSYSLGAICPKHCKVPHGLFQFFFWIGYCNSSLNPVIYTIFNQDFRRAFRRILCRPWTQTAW

Assay [4] deals with cGMP-inhibited 3',5'-cyclic phosphodiesterase 3A (Homo sapiens, UniProt Q14432). The format is functional.
Chain of cGMP-inhibited 3',5'-cyclic phosphodiesterase 3A (Q14432 whole entry): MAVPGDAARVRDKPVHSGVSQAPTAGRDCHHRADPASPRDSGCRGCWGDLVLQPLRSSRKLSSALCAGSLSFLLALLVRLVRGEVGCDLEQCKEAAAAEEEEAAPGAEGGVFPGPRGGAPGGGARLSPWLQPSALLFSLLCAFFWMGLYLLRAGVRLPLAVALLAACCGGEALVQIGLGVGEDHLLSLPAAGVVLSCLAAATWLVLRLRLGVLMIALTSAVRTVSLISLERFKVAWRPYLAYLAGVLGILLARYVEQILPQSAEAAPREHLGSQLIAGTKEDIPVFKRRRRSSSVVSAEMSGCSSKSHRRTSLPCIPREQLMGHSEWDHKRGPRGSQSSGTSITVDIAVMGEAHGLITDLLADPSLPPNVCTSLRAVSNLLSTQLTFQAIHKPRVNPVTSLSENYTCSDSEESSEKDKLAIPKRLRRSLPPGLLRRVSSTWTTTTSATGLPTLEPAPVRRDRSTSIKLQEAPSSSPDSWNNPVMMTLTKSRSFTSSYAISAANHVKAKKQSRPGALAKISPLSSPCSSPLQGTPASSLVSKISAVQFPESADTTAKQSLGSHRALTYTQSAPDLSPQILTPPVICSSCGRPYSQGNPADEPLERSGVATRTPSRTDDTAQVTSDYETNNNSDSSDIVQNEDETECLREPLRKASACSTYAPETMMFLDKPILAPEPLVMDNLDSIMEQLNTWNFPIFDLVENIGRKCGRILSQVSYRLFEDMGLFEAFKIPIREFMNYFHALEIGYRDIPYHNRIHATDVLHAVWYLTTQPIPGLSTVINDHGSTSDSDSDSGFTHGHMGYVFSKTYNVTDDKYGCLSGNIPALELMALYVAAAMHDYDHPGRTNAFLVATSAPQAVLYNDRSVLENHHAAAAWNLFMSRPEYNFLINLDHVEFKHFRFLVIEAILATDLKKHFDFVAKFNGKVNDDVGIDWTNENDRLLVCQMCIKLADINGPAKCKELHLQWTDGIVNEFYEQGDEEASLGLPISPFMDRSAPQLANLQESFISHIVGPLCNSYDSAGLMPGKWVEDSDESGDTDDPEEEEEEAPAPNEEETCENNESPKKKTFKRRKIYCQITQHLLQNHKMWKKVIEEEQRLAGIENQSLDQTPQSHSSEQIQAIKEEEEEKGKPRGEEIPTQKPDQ
In assay [5] the target is 5-hydroxytryptamine receptor 2B (Homo sapiens, UniProt P41595). The format is functional, cell-based.
Chain of 5-hydroxytryptamine receptor 2B (P41595 whole entry): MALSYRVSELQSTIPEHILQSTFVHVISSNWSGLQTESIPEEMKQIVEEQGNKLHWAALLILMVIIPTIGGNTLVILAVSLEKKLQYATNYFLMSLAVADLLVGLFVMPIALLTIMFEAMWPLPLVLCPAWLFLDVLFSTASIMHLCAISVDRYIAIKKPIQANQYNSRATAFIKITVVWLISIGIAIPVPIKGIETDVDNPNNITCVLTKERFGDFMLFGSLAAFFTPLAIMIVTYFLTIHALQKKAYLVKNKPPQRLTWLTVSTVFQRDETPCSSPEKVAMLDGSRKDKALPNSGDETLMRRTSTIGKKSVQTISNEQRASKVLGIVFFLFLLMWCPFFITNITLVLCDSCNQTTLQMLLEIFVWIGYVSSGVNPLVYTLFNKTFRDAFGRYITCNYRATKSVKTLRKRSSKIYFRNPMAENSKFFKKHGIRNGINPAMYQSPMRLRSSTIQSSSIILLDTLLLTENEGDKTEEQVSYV
The target of another assay is T3, Progesterone receptor (Homo sapiens, UniProt P06401).
T3 sequence (P06401 whole entry): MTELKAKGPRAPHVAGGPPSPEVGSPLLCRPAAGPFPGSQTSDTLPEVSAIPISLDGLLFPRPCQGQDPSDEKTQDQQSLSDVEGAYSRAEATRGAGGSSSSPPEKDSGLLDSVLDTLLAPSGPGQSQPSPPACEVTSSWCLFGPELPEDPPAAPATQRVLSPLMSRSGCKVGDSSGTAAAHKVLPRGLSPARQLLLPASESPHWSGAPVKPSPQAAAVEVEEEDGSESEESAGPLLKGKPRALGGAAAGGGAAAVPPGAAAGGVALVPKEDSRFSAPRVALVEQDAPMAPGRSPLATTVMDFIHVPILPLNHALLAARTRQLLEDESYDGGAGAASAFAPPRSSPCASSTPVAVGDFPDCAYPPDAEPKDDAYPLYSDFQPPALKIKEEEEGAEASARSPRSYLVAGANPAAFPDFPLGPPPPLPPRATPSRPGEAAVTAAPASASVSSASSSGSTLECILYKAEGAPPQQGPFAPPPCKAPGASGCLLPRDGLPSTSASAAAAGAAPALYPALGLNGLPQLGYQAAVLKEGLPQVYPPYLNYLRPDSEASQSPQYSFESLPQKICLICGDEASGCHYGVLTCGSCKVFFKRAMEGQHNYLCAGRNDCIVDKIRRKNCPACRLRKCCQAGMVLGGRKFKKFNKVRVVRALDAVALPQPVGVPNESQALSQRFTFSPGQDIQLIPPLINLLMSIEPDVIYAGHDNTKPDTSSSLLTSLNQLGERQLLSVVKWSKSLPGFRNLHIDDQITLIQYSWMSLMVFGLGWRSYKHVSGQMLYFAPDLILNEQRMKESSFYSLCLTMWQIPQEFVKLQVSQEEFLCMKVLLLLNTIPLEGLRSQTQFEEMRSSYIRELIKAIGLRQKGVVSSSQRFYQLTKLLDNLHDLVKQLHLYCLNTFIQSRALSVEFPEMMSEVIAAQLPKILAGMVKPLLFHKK

Assay [6] has as its target Kappa-type opioid receptor (Homo sapiens, UniProt P41145).
Another assay has as its target Histamine H1 receptor (Homo sapiens, UniProt P35367).
The target in another assay is T4, Thromboxane A2 receptor (Homo sapiens, UniProt P21731).
T4 sequence (P21731 whole entry): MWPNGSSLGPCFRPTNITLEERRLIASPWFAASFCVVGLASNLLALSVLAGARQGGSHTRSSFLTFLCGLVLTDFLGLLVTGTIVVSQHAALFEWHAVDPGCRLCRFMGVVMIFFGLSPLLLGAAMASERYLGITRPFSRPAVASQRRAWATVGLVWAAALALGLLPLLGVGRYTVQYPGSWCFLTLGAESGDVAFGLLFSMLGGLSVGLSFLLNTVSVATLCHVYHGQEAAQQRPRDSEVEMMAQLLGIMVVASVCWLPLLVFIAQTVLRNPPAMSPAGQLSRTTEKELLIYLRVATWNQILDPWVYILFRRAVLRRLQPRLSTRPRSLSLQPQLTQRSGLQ
The format is functional, cell-based.

Structures are written as SMILES. A value given as a limit tells only on which side of the number the result lay.
Also: assay procedure not described here.

Chain of Histamine H1 receptor (P35367 whole entry): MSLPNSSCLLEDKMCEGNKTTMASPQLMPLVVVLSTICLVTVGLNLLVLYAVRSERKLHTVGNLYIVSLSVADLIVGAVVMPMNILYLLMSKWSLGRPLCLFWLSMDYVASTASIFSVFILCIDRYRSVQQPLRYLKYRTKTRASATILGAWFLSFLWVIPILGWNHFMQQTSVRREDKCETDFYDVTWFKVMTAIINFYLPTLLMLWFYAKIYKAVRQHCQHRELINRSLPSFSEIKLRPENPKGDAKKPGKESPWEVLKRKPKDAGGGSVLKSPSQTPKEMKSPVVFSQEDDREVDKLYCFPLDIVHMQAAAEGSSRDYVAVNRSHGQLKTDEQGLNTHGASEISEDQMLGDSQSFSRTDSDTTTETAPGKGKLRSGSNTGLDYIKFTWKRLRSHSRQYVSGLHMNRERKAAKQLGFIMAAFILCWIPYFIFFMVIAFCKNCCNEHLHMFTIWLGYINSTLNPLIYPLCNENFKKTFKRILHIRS
Chain of Kappa-type opioid receptor (P41145 whole entry): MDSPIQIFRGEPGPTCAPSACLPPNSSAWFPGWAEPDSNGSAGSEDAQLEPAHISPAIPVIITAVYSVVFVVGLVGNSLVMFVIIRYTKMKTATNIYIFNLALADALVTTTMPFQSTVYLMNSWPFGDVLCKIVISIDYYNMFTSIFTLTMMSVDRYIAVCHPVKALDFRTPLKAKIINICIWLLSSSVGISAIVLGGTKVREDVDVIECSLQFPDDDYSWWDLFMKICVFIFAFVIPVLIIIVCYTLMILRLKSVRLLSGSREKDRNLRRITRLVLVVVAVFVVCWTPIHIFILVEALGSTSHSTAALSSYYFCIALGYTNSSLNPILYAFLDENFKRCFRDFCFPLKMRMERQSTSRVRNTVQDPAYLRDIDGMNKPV
Chain of 5-hydroxytryptamine receptor 2A (P28223 whole entry): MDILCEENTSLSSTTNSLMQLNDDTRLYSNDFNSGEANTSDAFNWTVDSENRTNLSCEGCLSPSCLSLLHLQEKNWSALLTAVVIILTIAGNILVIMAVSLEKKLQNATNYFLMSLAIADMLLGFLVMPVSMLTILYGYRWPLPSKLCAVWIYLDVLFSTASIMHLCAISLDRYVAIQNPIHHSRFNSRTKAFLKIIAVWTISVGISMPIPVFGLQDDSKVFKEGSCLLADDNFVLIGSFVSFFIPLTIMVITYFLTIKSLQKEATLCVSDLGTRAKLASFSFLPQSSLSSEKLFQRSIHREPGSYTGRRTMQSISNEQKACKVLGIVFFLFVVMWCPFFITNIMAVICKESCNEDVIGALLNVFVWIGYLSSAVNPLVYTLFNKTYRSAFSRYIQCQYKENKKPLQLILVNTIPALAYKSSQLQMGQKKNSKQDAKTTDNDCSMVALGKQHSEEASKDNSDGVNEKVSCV
Chain of Sodium-dependent noradrenaline transporter (P23975 whole entry): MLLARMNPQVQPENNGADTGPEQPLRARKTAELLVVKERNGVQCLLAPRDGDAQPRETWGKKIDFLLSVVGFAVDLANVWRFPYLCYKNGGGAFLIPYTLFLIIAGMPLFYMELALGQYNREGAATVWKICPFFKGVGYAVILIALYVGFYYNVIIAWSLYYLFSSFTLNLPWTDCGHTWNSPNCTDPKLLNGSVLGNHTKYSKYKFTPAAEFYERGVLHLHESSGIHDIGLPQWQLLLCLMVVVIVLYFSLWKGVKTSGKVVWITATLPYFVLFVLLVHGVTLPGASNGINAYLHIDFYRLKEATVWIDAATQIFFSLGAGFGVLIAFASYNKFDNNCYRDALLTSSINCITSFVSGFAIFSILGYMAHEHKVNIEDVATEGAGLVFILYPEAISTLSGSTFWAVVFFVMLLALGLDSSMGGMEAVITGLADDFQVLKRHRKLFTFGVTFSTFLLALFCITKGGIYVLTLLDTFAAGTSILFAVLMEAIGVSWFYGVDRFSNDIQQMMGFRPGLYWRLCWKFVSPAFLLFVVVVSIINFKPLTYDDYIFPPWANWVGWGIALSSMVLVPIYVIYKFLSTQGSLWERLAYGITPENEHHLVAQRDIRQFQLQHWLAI

What is called AC50 is the midpoint of the concentration-response curve, whichever way the signal moves. A higher AC50 goes with weaker potency. Regarding `C=CCc1ccccc1OCC(O)CNC(C)C` (stereo not drawn) [ALPRENOLOL], the AC50 is > 30 µM in assay [1]; > 0.3 µM in assay [2]; > 0.3 µM on Adenosine receptor A3; > 30 µM at Histamine H3 receptor; > 0.3 µM on Acetylcholinesterase; > 30 µM in assay [3]. Further, the AC50 was > 0.3 µM in [4]; 16 µM in [5]; > 0.3 µM on Progesterone receptor; > 30 µM in [6]; > 30 µM at Histamine H1 receptor; > 0.3 µM at Thromboxane A2 receptor.
With `CC(C)C[C@H]1C(=O)N2CCC[C@H]2[C@]2(O)O[C@](NC(=O)[C@@H]3C=C4c5cccc6[nH]c(Br)c(c56)C[C@H]4N(C)C3)(C(C)C)C(=O)N12` [BROMOCRIPTINE], the AC50 is > 30 µM in assay [2]; 1.92 µM on Adenosine receptor A3; > 30 µM at Histamine H3 receptor; 1.78 µM at Acetylcholinesterase; > 30 µM in [4]; 0.538 µM in assay [5]. Moreover, the AC50 on Progesterone receptor is > 30 µM; in assay [6] it was 12.8 µM; at Thromboxane A2 receptor it was 18.8 µM.
With `O=C(OCC(O)CO)c1ccccc1Nc1ccnc2cc(Cl)ccc12` (stereo not drawn) [GLAFENINE], the AC50 in assay [1] is > 30 µM; in [2], 17 µM; at Adenosine receptor A3, 1.4 µM; at Histamine H3 receptor, > 30 µM; on Acetylcholinesterase, > 30 µM; in [3], > 30 µM. Further, the AC50 (in assay [4]; in assay [5]; on Progesterone receptor; at Histamine H1 receptor; on Thromboxane A2 receptor) was > 30 µM throughout.
Regarding `Cc1cccc(Nc2ccccc2C(=O)O)c1C` [MEFENAMIC ACID], the half-maximal activity concentration (AC50) in assay [2] is > 30 µM; at Adenosine receptor A3, > 30 µM; at Histamine H3 receptor, > 10 µM; at Acetylcholinesterase, > 30 µM; in assay [4], > 30 µM; in assay [5], > 10 µM. For the same compound, the AC50 is > 30 µM on Progesterone receptor, > 10 µM in assay [6] and > 30 µM on Thromboxane A2 receptor.
In the case of `CC[C@H]1[C@@H](O)[C@@H]2[C@H](CC[C@]3(C)[C@@H]([C@H](C)CCC(=O)O)CC[C@@H]23)[C@@]2(C)CC[C@@H](O)C[C@@H]12` [OBETICHOLIC ACID], the AC50 (in assay [1]; in assay [2]; on Adenosine receptor A3; at Histamine H3 receptor; at Acetylcholinesterase; in assay [3]) was > 30 µM throughout. Moreover, the AC50 (in assay [4]; at Progesterone receptor; in [6]; on Histamine H1 receptor; on Thromboxane A2 receptor) was > 30 µM in each case.
Turning to `CS(=O)(=O)c1ccc(C2=C(c3ccccc3)C(=O)OC2)cc1` [ROFECOXIB], the AC50 in assay [2] was > 30 µM; on Adenosine receptor A3, 18.5 µM; on Histamine H3 receptor, > 10 µM; on Acetylcholinesterase, > 30 µM; in assay [4] it was > 30 µM; in [5] it was > 30 µM. The figures for the AC50 (at Progesterone receptor; in [6]; at Thromboxane A2 receptor) were > 30 µM, > 10 µM and > 30 µM, respectively.
`CO[C@H]1C[C@@H]2CC[C@@H](C)[C@@](O)(O2)C(=O)C(=O)N2CCCC[C@H]2C(=O)O[C@H]([C@H](C)C[C@@H]2CC[C@@H](O)[C@H](OC)C2)CC(=O)[C@H](C)/C=C(\C)[C@@H](O)[C@@H](OC)C(=O)[C@H](C)C[C@H](C)/C=C/C=C/C=C/1C` [SIROLIMUS]: the concentration at half-maximal activity (AC50) in assay [2] was > 30 µM; at Adenosine receptor A3 it was 26.4 µM; at Histamine H3 receptor, > 10 µM; at Acetylcholinesterase, > 30 µM; in [4] it was > 30 µM; in assay [5], > 10 µM. In addition, the AC50 on Progesterone receptor was > 30 µM; in [6], > 10 µM; at Thromboxane A2 receptor, > 30 µM.
Consider `Cc1cn([C@H]2C=C[C@@H](CO)O2)c(=O)[nH]c1=O` [STAVUDINE], for which the AC50 in [2] is > 30 µM; at Adenosine receptor A3 it was > 30 µM; on Histamine H3 receptor, > 30 µM; on Acetylcholinesterase it was > 30 µM; in assay [4], > 30 µM; in assay [5], > 10 µM. Besides, the figures for the AC50 (on Progesterone receptor; in [6]; at Thromboxane A2 receptor) were > 30 µM, > 10 µM and > 30 µM, respectively.
`Cc1cn([C@H]2C[C@H](N=[N+]=[N-])[C@@H](CO)O2)c(=O)[nH]c1=O` [ZIDOVUDINE]: the concentration at half-maximal activity (AC50) is > 30 µM in assay [2]; > 30 µM at Adenosine receptor A3; > 10 µM on Histamine H3 receptor; > 30 µM on Acetylcholinesterase; > 30 µM in [4]; > 10 µM in assay [5]. The figures for the AC50 (on Progesterone receptor; in assay [6]; on Thromboxane A2 receptor) were > 30 µM, > 10 µM and > 30 µM, respectively.
